Assay: xn = mol fraction of the nth substance listed
Conditions: 100 kPa

CC[N+](CC)(CC)CC.[Cl-] + OCCOCCOCCO
electrical conductivity (293.15 K, x1 = 0.1667): 0.16 S/m | viscosity (293.15 K, x1 = 0.1667): 80 mPa·s | electrical conductivity (293.15 K, x1 = 0.25): 0.194 S/m | viscosity (293.15 K, x1 = 0.25): 117 mPa·s | electrical conductivity (303.15 K, x1 = 0.1667): 0.226 S/m | viscosity (303.15 K, x1 = 0.1667): 55.9 mPa·s | electrical conductivity (303.15 K, x1 = 0.25): 0.276 S/m | viscosity (303.15 K, x1 = 0.25): 77 mPa·s | electrical conductivity (313.15 K, x1 = 0.1667): 0.313 S/m | viscosity (313.15 K, x1 = 0.1667): 40 mPa·s | electrical conductivity (313.15 K, x1 = 0.25): 0.384 S/m | viscosity (313.15 K, x1 = 0.25): 52.1 mPa·s | electrical conductivity (323.15 K, x1 = 0.1667): 0.424 S/m | viscosity (323.15 K, x1 = 0.1667): 29.2 mPa·s | electrical conductivity (323.15 K, x1 = 0.25): 0.524 S/m | viscosity (323.15 K, x1 = 0.25): 36.1 mPa·s | electrical conductivity (333.15 K, x1 = 0.1667): 0.564 S/m | viscosity (333.15 K, x1 = 0.1667): 21.7 mPa·s | electrical conductivity (333.15 K, x1 = 0.25): 0.702 S/m | viscosity (333.15 K, x1 = 0.25): 25.6 mPa·s

CCCC[N+](CCCC)(CCCC)CCCC.[Cl-] + Oc1ccccc1
electrical conductivity (293.15 K, x1 = 0.1667): 0.0802 S/m | viscosity (293.15 K, x1 = 0.167): 91.3 mPa·s | electrical conductivity (303.15 K, x1 = 0.1667): 0.117 S/m | viscosity (303.15 K, x1 = 0.167): 66.4 mPa·s | electrical conductivity (313.15 K, x1 = 0.1667): 0.167 S/m | viscosity (313.15 K, x1 = 0.167): 49.2 mPa·s | electrical conductivity (323.15 K, x1 = 0.1667): 0.232 S/m | electrical conductivity (333.15 K, x1 = 0.1667): 0.317 S/m | viscosity (333.15 K, x1 = 0.167): 28.6 mPa·s
